Laboratory results: patent US20250051263A1, “NOVEL IONIZABLE LIPIDS AND LIPID NANOPARTICLES AND METHODS OF USING THE SAME” (Sail Biomedicines, Inc., priority 2021, published 2025)

Legend:
Balb/c mice = assay: In-vivo bioluminescent imaging after IV injection of Fluc mRNA LNP; settings: for Bioluminescence (IV) Liver / Bioluminescence (IV) Lung / Bioluminescence (IV) Spleen / Bioluminescence (IV) Whole Body / Spleen: Liver Ratio: Example 5 LNP (DOPE 35:16:46.5:2.5), 5 μg FLUC + 5 μg EPO; for Bioluminescence (IV) Liver / Bioluminescence (IV) Lung / Bioluminescence (IV) Spleen / Bioluminescence (IV) Whole Body / Bioluminescence Liver / Bioluminescence Lung / Bioluminescence Spleen: 4-6 hours post-dose; for Bioluminescence (IV) Liver / Bioluminescence (IV) Lung / Bioluminescence (IV) Spleen / Bioluminescence (IV) Whole Body / Spleen: Liver Ratio / Bioluminescence Liver / Bioluminescence Lung / Bioluminescence Spleen: IV; for Spleen: Liver Ratio: ratio of bioluminescence; for Bioluminescence Liver / Bioluminescence Lung / Bioluminescence Spleen: 5 ug Fluc+5 ug EPO mRNA; for bioluminescence in the liver, spleen, and lung: used as part of an ionizable lipid scaffold (LNP), Table 1
[1] = TNS (pKa) assay, apparent LNP pKa; format: physicochemical; settings: for pKa (TNS): Example 5 LNP lipid:DOPE:Plant Cholesterol:DMPE-PEG2k 35:16:46.5:2.5, FLUC/EPO 1:1 mRNA, N:P 6:1
Method: (protocol adapted from: A Novel Amino Lipid Series for mRNA Delivery: Improved Endosomal Escape and Sustained Pharmacology and Safety in Non-human Primates, Sabnis, Staci et al., Molecular Therapy, Volume 26, Issue 6, 1509-1519) 20 buffers (10 mM sodium phosphate, 10 mM sodium borate, 10 mM sodium citrate, and 150 mM sodium chloride, in Distilled Water) of unique pH values ranging from 3.0-12.0 were prepared using 1M sodium hydroxide and 1M hydrochloric acid. 3.25 uL of LNPs (0.04 mg/mL mRNA, in PBS) were incubated with 2 μL of TNS reagent (0.3 mM, in DMSO) and 90 μL of buffer for each pH value (described above) in a 96-well black-walled plate. Each pH condition was performed in triplicate wells. The TNS fluorescence was measured using a Biotek Cytation Plate reader at excitation/emission wavelengths of 321/445 nm. The fluorescence values were then plotted and fit using a 4-parameter sigmoid curve. From the fit, the pH value yielding the half-maximal fluorescence was calculated and reported as the apparent LNP pKa value.
For pKa measurement, a […] assay was conducted according to those described in Sabnis et al., Molecular Therapy, 26(6):1509-19), which is incorporated herein by reference in its entirety. Briefly, 20 buffers (10 mM sodium phosphate, 10 mM sodium borate, 10 mM sodium citrate, and 150 mM sodium chloride, in distilled Water) of unique pH values ranging from 3.0-12.0 were prepared using 1M sodium hydroxide and 1M hydrochloric acid. 3.25 μL of a LNP composition (0.04 mg/mL mRNA, in PBS) was incubated with 2 μL of TNS reagent (0.3 mM, in DMSO) and 90 μL of buffer for each pH value (described above) in a 96-well black-walled plate. Each pH condition was performed in triplicate wells. The TNS fluorescence was measured using a Biotek Cytation Plate reader at excitation/emission wavelengths of 321/445 nm. The fluorescence values were then plotted and fit using a 4-parameter sigmoid curve. From the fit, the pH value yielding the half-maximal fluorescence was calculated and reported as the apparent LNP pKa value.

[2] = LNP lipid:DSPC:Plant Chol.:DMPE-PEG2k 50:10:38.5:1.5
[3] = LNP lipid:DOPE:Plant Chol.:DMPE-PEG2k 35:16:46.5:2.5 (Table 1)

Row | Compound | Bioluminescence (IV) Liver (Balb/c mice) | Bioluminescence (IV) Lung (Balb/c mice) | Bioluminescence (IV) Spleen (Balb/c mice) | Bioluminescence (IV) Whole Body (Balb/c mice) | Spleen: Liver Ratio (Balb/c mice) | Bioluminescence Liver (Balb/c mice; [2]) | Bioluminescence Lung (Balb/c mice; [2]) | Bioluminescence Spleen (Balb/c mice; [2]) | bioluminescence in the liver, spleen, and lung (Balb/c mice) | pKa (TNS) [1] | Bioluminescence Liver (Balb/c mice; [3]) | Bioluminescence Lung (Balb/c mice; [3]) | Bioluminescence Spleen (Balb/c mice; [3]) | pKa ([1]; LNP ionizable lipid:DOPE:Plant Chol.:DMPE-PEG2k 35:16:46.5:2.5 (Table 1)) | pKa ([1]; LNP ionizable lipid:DSPC:Plant Chol.:DMPE-PEG2k 50:10:38.5:1.5)
1 | CCCCCCCCCCCOC(=O)CCCCCN(CCCCCCCC(=O)OC(CCCCCCCC)CCCCCCCC)CCOC(=O)OCCN(CCCCCCCC(=O)OC(CCCCCCCC)CCCCCCCC)CCCCCC(=O)OCCCCCCCCCCC [Compound 2218, 1-octylnonyl 8-[2-[2-[[8-(1-octylnonoxy)-8-oxo-octyl]-(6-oxo-6-undecoxy-hexyl)amino]ethoxycarbonyloxy]ethyl-(6-oxo-6-undecoxy-hexyl)amino]octanoate] | 1.9E+03 | 7.9E+02 | 1.8E+03 | 4.1E+03 | 1.019 | 1.16E+03 | 7.20E+02 | 8.14E+03 | improved bioluminescence | 4.34 |  |  |  |  | 
2 | C=C(CN(CCCCCCCC(=O)OC(CCCCCCCC)CCCCCCCC)CCCCCC(=O)OCCCCCCCCCCC)CN(CCCCCCCC(=O)OC(CCCCCCCC)CCCCCCCC)CCCCCC(=O)OCCCCCCCCCCC [Compound 2253, 1-octylnonyl 8-[2-[[[8-(1-octylnonoxy)-8-oxo-octyl]-(6-oxo-6-undecoxy-hexyl)amino]methyl]allyl-(6-oxo-6-undecoxy-hexyl)amino]octanoate] | 1.3E+03 | 7.2E+02 | 1.2E+03 | 3.8E+03 | 0.937 | 1.30E+03 | 6.16E+02 | 9.98E+02 | improved bioluminescence | 3.66 | 1.33E+03 | 7.18E+02 | 1.24E+03 | 3.66 | 3.48
3 | CCCCCCCCCCCC(=O)OCCCCCN(CCCCCCCC(=O)OC(CCCCCCCC)CCCCCCCC)CCNC(=O)CCC(=O)NCCN(CCCCCCCC(=O)OC(CCCCCCCC)CCCCCCCC)CCCCCOC(=O)CCCCCCCCCCC [Compound 2354, 5-[2-[[4-[2-[5-dodecanoyloxypentyl-[8-(1-octylnonoxy)-8-oxo-octyl]amino]ethylamino]-4-oxo-butanoyl]amino]ethyl-[8-(1-octylnonoxy)-8-oxo-octyl]amino] pentyl dodecanoate] | 5.6E+06 | 6.2E+03 | 7.3E+05 | 4.5E+07 | 0.131 |  |  |  |  | 6.47 |  |  |  |  | 
4 | CCCCCCCCCCCOC(=O)CCCCCN(CCCCCCCC(=O)OC(CCCCCCCC)CCCCCCCC)CCNC(=O)NCCN(CCCCCCCC(=O)OC(CCCCCCCC)CCCCCCCC)CCCCCC(=O)OCCCCCCCCCCC [Compound 2246, 1-octylnonyl8-[2-[2-[[8-(1-octylnonoxy)-8-oxo-octyl]-(6-oxo-6-undecoxy-hexyl)amino]ethylcarbamoylamino]ethyl-(6-oxo-6-undecoxy-hexyl)amino]octanoate] | 1.8E+07 | 3.7E+03 | 1.3E+05 | 1.3E+08 | 0.007 |  |  |  |  | 6.63 |  |  |  |  | 
5 | CCCCCCCCCC(=O)OCCCCCCCN(CCCCCCCC(=O)OC(CCCCCCCC)CCCCCCCC)CCNC(=O)CCC(=O)NCCN(CCCCCCCOC(=O)CCCCCCCCC)CCCCCCCC(=O)OC(CCCCCCCC)CCCCCCCC [Compound 2272, 7-[2-[[4-[2-[7-decanoyloxyheptyl-[8-(1-octylnonoxy)-8-oxo-octyl]amino]ethylamino]-4-oxo-butanoyl]amino]ethyl-[8-(1-octylnonoxy)-8-oxo-octyl]amino]heptyl decanoate] | 1.8E+07 | 1.5E+04 | 1.0E+06 | 1.3E+08 | 0.055 |  |  |  |  | 6.48 |  |  |  |  | 
6 | CCCCCCCCCCCOC(=O)CCCCCN(CCCCCCCC(=O)OC(CCCCCCCC)CCCCCCCC)CCNC(=O)CC(=O)NCCN(CCCCCCCC(=O)OC(CCCCCCCC)CCCCCCCC)CCCCCC(=O)OCCCCCCCCCCC [Compound 2220, 1-octylnonyl 8-[2-[[3-[2-[[8-(1-octylnonoxy)-8-oxo-octyl]-(6-oxo-6-undecoxy-hexyl)amino]ethylamino]-3-oxo-propanoyl]amino]ethyl-(6-oxo-6-undecoxy-hexyl)amino]octanoate] | 1.1E+07 | 1.8E+03 | 7.5E+04 | 4.3E+07 | 0.004 | 1.03E+07 | 7.79E+03 | 2.09E+06 | improved bioluminescence | 6.02 |  |  |  |  | 
7 | CCCCCCCCCCCOC(=O)CCCCCN(CCCCCCCC(=O)OC(CCCCCCCC)CCCCCCCC)CCCNC(=O)CN(CC(=O)NCCCN(CCCCCCCC(=O)OC(CCCCCCCC)CCCCCCCC)CCCCCC(=O)OCCCCCCCCCCC)C(=O)CCN1CCCC1 [Compound 2353, 1-octylnonyl8-[3-[[2-[[2-[3-[[8-(1-octylnonoxy)-8-oxo-octyl]-(6-oxo-6-undecoxy-hexyl)amino]propylamino]-2-oxo-ethyl]-(3-pyrrolidin-1-ylpropanoyl)amino]acetyl]amino]propyl-(6-oxo-6-undecoxy-hexyl)amino]octanoate] | 9.7E+03 | 3.2E+04 | 1.3E+05 | 7.8E+04 | 7.617 |  |  |  |  | 7.01 |  |  |  |  | 
8 | CCCCCCCCCCCOC(=O)CCCCCN(CCCCCCCC(=O)OCCCC(CCCCC)CCCCC)CCN1CCN(CCN(CCCCCCCC(=O)OCCCC(CCCCC)CCCCC)CCCCCC(=O)OCCCCCCCCCCC)CC1 [Compound 2397, 4-pentylnonyl 8-[2-[4-[2-[[8-oxo-8-(4-pentylnonoxy)octyl]-(6-oxo-6-undecoxy-hexyl)amino]ethyl]piperazin-1-yl]ethyl-(6-oxo-6-undecoxy-hexyl)amino]octanoate] | 1.4E+07 | 9.4E+03 | 6.5E+05 | 6.5E+07 | 0.052 |  |  |  |  | 6.44 |  |  |  |  | 
